{"source": "ChEMBL document CHEMBL1255495", "about": "“Experimental conditions that enhance potency of an antibacterial oligo-acyl-lysyl” (2010)", "key": {"[1]": {"test_system": "Escherichia coli", "assay": "Antibacterial activity against Escherichia coli O157:H7 ATCC 43894 after 24 hrs by microdilution method in presence of 20 mM MgCl2", "assay_type": "functional", "conditions": "O157:H7 ATCC 43894, 24 h"}, "[2]": {"test_system": "Escherichia coli", "assay": "Antibacterial activity against Escherichia coli O157:H7 ATCC 43894 at pH 7 after 24 hrs by microdilution method", "assay_type": "functional", "conditions": "O157:H7 ATCC 43894, 24 h"}, "[3]": {"test_system": "Listeria monocytogenes", "assay": "Antibacterial activity against Listeria monocytogenes ATCC 19115 after 24 hrs by microdilution method in presence of 20 mM MgCl2", "assay_type": "functional", "conditions": "ATCC 19115, 24 h"}, "[4]": {"test_system": "Escherichia coli", "assay": "Antibacterial activity against Escherichia coli O157:H7 ATCC 43894 after 24 hrs by microdilution method in presence of 80 mM MgCl2", "assay_type": "functional", "conditions": "O157:H7 ATCC 43894, 24 h"}, "[5]": {"test_system": "Escherichia coli", "assay": "Antibacterial activity against Escherichia coli O157:H7 ATCC 43894 assessed as reduction in bacterial population at 0.01 to 10 uM up to 15 mins by time-kill assay", "assay_type": "functional"}, "[6]": {"test_system": "Escherichia coli", "assay": "Antibacterial activity against Escherichia coli O157:H7 ATCC 43894 after 72 hrs at 4 degC by microdilution method", "assay_type": "functional", "conditions": "O157:H7 ATCC 43894, 72 h"}, "[7]": {"test_system": "Staphylococcus aureus", "assay": "Antibacterial activity against methicillin-resistant Staphylococcus aureus ATCC 43300 at pH 7 after 24 hrs by microdilution method", "assay_type": "functional", "conditions": "ATCC 43300, 24 h"}, "[8]": {"test_system": "Escherichia coli", "assay": "Antibacterial activity against Escherichia coli O157:H7 ATCC 43894 after 24 hrs by microdilution method in presence of 170 mM NaCl", "assay_type": "functional", "conditions": "O157:H7 ATCC 43894, 24 h"}, "[9]": {"test_system": "Staphylococcus aureus", "assay": "Antibacterial activity against methicillin-resistant Staphylococcus aureus isolate 15903 after 24 hrs by microdilution method in presence of 1030 mM NaCl", "assay_type": "functional", "conditions": "isolate 15903, 24 h"}, "[10]": {"test_system": "Listeria monocytogenes", "assay": "Antibacterial activity against Listeria monocytogenes ATCC 19115 at pH 3.5 after 24 hrs by microdilution method", "assay_type": "functional", "conditions": "ATCC 19115, 24 h"}, "[11]": {"test_system": "Escherichia coli", "assay": "Antibacterial activity against Escherichia coli O157:H7 ATCC 43894 after 24 hrs by microdilution method in presence of 1030 mM NaCl", "assay_type": "functional", "conditions": "O157:H7 ATCC 43894, 24 h"}, "[12]": {"test_system": "Staphylococcus aureus", "assay": "Antibacterial activity against methicillin-resistant Staphylococcus aureus isolate 15903 after 24 hrs by microdilution method in presence of 170 mM NaCl", "assay_type": "functional", "conditions": "isolate 15903, 24 h"}, "[13]": {"test_system": "Escherichia coli", "assay": "Antibacterial activity against Escherichia coli O157:H7 ATCC 43894 after 24 hrs by microdilution method in presence of 160 mM MgCl2", "assay_type": "functional", "conditions": "O157:H7 ATCC 43894, 24 h"}, "[14]": {"test_system": "Listeria monocytogenes", "assay": "Antibacterial activity against Listeria monocytogenes ATCC 19115 at pH 5.5 after 24 hrs by microdilution method", "assay_type": "functional", "conditions": "ATCC 19115, 24 h"}, "[15]": {"test_system": "Staphylococcus aureus", "assay": "Antibacterial activity against methicillin-resistant Staphylococcus aureus isolate 15903 after 24 hrs at 48 degC by microdilution method", "assay_type": "functional", "conditions": "isolate 15903, 24 h"}, "[16]": {"test_system": "Escherichia coli", "assay": "Antibacterial against Escherichia coli O157:H7 ATCC 43894 at pH 8.5 after 24 hrs at 48 degC by microdilution method in presence of 85 mM NaCl", "assay_type": "functional", "conditions": "O157:H7 ATCC 43894, 24 h"}, "[17]": {"test_system": "Staphylococcus aureus", "assay": "Antibacterial activity against methicillin-resistant Staphylococcus aureus isolate 15903 at pH 7 after 24 hrs by microdilution method", "assay_type": "functional", "conditions": "isolate 15903, 24 h"}, "[18]": {"test_system": "Listeria monocytogenes", "assay": "Antibacterial activity against Listeria monocytogenes ATCC 19115 after 24 hrs by microdilution method in presence of 515 mM NaCl", "assay_type": "functional", "conditions": "ATCC 19115, 24 h"}, "[19]": {"test_system": "Staphylococcus aureus", "assay": "Antibacterial activity against methicillin-resistant Staphylococcus aureus isolate 15903 after 24 hrs by microdilution method in presence of 515 mM NaCl", "assay_type": "functional", "conditions": "isolate 15903, 24 h"}, "[20]": {"test_system": "Listeria monocytogenes", "assay": "Antibacterial activity against Listeria monocytogenes ATCC 19115 after 24 hrs by microdilution method in presence of 170 mM NaCl", "assay_type": "functional", "conditions": "ATCC 19115, 24 h"}, "[21]": {"test_system": "Listeria monocytogenes", "assay": "Antibacterial activity against Listeria monocytogenes ATCC 19115 after 24 hrs by microdilution method in presence of 160 mM MgCl2", "assay_type": "functional", "conditions": "ATCC 19115, 24 h"}, "[22]": {"test_system": "Listeria monocytogenes", "assay": "Antibacterial activity against Listeria monocytogenes ATCC 19115 after 24 hrs by microdilution method in presence of 80 mM MgCl2", "assay_type": "functional", "conditions": "ATCC 19115, 24 h"}, "[23]": {"test_system": "Listeria monocytogenes", "assay": "Antibacterial activity against Listeria monocytogenes ATCC 19115 after 24 hrs by microdilution method in presence of 260 mM NaCl", "assay_type": "functional", "conditions": "ATCC 19115, 24 h"}, "[24]": {"test_system": "Escherichia coli", "assay": "Antibacterial activity against Escherichia coli O157:H7 ATCC 43894 after 24 hrs by microdilution method in presence of 515 mM NaCl", "assay_type": "functional", "conditions": "O157:H7 ATCC 43894, 24 h"}, "[25]": {"test_system": "Staphylococcus aureus", "assay": "Ratio of MIC for methicillin-resistant Staphylococcus aureus isolate 15903 in presence of 85 mM NaCl to MIC for methicillin-resistant Staphylococcus aureus isolate 15903 at pH 8.5 after 24 hrs at 48 degC in presence of 85 mM NaCl", "assay_type": "functional"}, "[26]": {"test_system": "Staphylococcus aureus", "assay": "Antibacterial activity against Staphylococcus aureus ATCC 25923 at pH 7 after 24 hrs by microdilution method", "assay_type": "functional", "conditions": "ATCC 25923, 24 h"}, "[27]": {"test_system": "Staphylococcus aureus", "assay": "Antibacterial activity against methicillin-resistant Staphylococcus aureus isolate 15903 at pH 5.5 after 24 hrs by microdilution method", "assay_type": "functional", "conditions": "isolate 15903, 24 h"}, "[28]": {"test_system": "Staphylococcus aureus", "assay": "Antibacterial activity against methicillin-resistant Staphylococcus aureus isolate 15903 after 24 hrs by microdilution method in presence of 260 mM NaCl", "assay_type": "functional", "conditions": "isolate 15903, 24 h"}, "[29]": {"test_system": "Lipid bilayer", "assay": "Binding affinity to phospholipid membrane model at pH 8.5 by surface plasmon resonance in presence of 140 mM NaCl"}}, "note": "Calls of active or inactive are those of the source. The calls are words filed in the database; no cut-off is given here."}
{"smiles": "CCCCCCCCCCCC(=O)N[C@@H](CCCCN)C(=O)NCCCCCCCC(=O)N[C@@H](CCCCN)C(=O)NCCCCCCCC(=O)N[C@@H](CCCCN)C(=O)NCCCCCCCC(=O)N[C@@H](CCCCN)C(=O)NCCCCCCCC(=O)N[C@@H](CCCCN)C(=O)NCCCCCCCC(=O)N[C@@H](CCCCN)C(=O)NCCCCCCCC(=O)N[C@@H](CCCCN)C(=O)NCCCCCCCC(=O)N[C@@H](CCCCN)C(N)=O", "values": [{"measurement": "MIC", "setting": "[1]", "value": 3.1, "unit": "µM"}, {"measurement": "MIC", "setting": "[2]", "value": 3.1, "unit": "µM"}, {"measurement": "MIC", "setting": "[3]", "value": 3.1, "unit": "µM"}, {"measurement": "MIC", "setting": "[4]", "value": 12.5, "unit": "µM"}, {"measurement": "inhibition (INH)", "setting": "[5]", "value": 99, "unit": "%"}, {"measurement": "MIC", "setting": "[6]", "value": 6.3, "unit": "µM"}, {"measurement": "MIC", "setting": "[7]", "value": 50, "unit": "µM"}, {"measurement": "MIC", "setting": "[8]", "value": 3.1, "unit": "µM"}, {"measurement": "MIC", "setting": "[9]", "value": "> 50", "unit": "µM"}, {"measurement": "MIC", "setting": "[10]", "value": "> 50", "unit": "µM"}, {"measurement": "MIC", "setting": "[11]", "value": 12.5, "unit": "µM"}, {"measurement": "MIC", "setting": "[12]", "value": 50, "unit": "µM"}, {"measurement": "MIC", "setting": "[13]", "value": 50, "unit": "µM"}, {"measurement": "MIC", "setting": "[14]", "value": 3.1, "unit": "µM"}, {"measurement": "MIC", "setting": "[15]", "value": 3.1, "unit": "µM"}, {"measurement": "MIC", "setting": "[16]", "value": 0.2, "unit": "µM"}, {"measurement": "MIC", "setting": "[17]", "value": 12.5, "unit": "µM"}, {"measurement": "MIC", "setting": "[18]", "value": 6.3, "unit": "µM"}, {"measurement": "MIC", "setting": "[19]", "value": "> 50", "unit": "µM"}, {"measurement": "MIC", "setting": "[20]", "value": 3.1, "unit": "µM"}, {"measurement": "MIC", "setting": "[21]", "value": 25, "unit": "µM"}, {"measurement": "MIC", "setting": "[22]", "value": 12.5, "unit": "µM"}, {"measurement": "MIC", "setting": "[23]", "value": 3.1, "unit": "µM"}, {"measurement": "MIC", "setting": "[24]", "value": 6.3, "unit": "µM"}, {"measurement": "Ratio", "setting": "[25]", "value": 16}, {"measurement": "MIC", "setting": "[26]", "value": 25, "unit": "µM"}, {"measurement": "MIC", "setting": "[27]", "value": "> 50", "unit": "µM"}, {"measurement": "MIC", "setting": "[28]", "value": "> 50", "unit": "µM"}, {"measurement": "Activity", "setting": "[29]", "value": "Active"}]}
